Data as given in US20160051536A1, “COMPOSITIONS TO ALLEVIATE PRESYSTEMIC METABOLISM OF OPIOIDS” (VIRGINIA COMMONWEALTH UNIVERSITY, priority 2013, published 2016).

system: not given; test: not given; conditions: in words; cited from earlier work

Compound | oral bioavailability
C=CCN1CC[C@]23c4c5ccc(O)c4O[C@H]2C(=O)CC[C@@]3(O)[C@H]1C5 [naloxone] | low

system: UGT; test: Effect of inhibitors on buprenorphine-glucuronide formation in LS180 cells; conditions: buprenorphine 10 μM, inhibitor 100 μM, 2 hours, vs control, p<0.05, n.d. = glucuronide not detected
Experimental: Unless otherwise indicated, the in vitro experiments described in the following section were conducted using human colon adenocarcinoma LS180 cells.
Human intestinal cells (LS180) were cultured in Dulbecco's modified Eagle's medium (DMEM) supplemented with 10% fetal bovine serum and 1% non-essential amino acids in microplates. […] The cells were rinsed with DPBS, aspirated, and the solutions (37° C.) were added to the cells and incubated for 2 hours. The reactions were stopped and protein was precipitated by adding 20% acetonitrile. After freezing (−80° C.) and thawing, samples were centrifuged and analyzed by HPLC using an Alltima HP C18 column (4.6×100 mm, 3 μm) with gradient elution (mobile phase A: acetonitrile; mobile phase B: 10% acetonitrile, 90% aqueous 25 mM ammonium acetate; 0-78% A) followed by detection by fluoresence (excitation 283 nm, emission 346 nm) and quantitation using Waters Empower 2 software. Results were analyzed by one-way ANOVA with Dunnett's post-test (control vs. inhibitors); asterisk designates p<0.05; n.d. designates not detected.

Compound | formation of buprenorphine glucuronide
COc1cc(/C=C/C(=O)CC(=O)/C=C/c2ccc(O)c(OC)c2)ccc1O [curcumin] | not detected
CCOc1cc(C2OCC(C)O2)ccc1O (stereo not shown) [ethyl vanillin propylene glycol acetal] | significantly decreased
CCOc1cc(C=O)ccc1O [ethyl vanillin] | significantly decreased
C=CCc1ccc(O)c(OC)c1 [eugenol] | significantly decreased
COc1ccccc1O [guaiacol] | significantly decreased
CC=Cc1ccc(O)c(OC)c1 [isoeugenol] | not detected
C=CCc1ccc(O)c(-c2cc(CC=C)ccc2O)c1 [magnolol] | significantly decreased
COC(=O)c1ccc(O)cc1 [methylparaben] | trend toward a decrease
CCCOC(=O)c1cc(O)c(O)c(O)c1 [propyl gallate] | not detected
CCCOC(=O)c1ccc(O)cc1 [propylparaben] | significantly decreased
O=c1c(O)c(-c2ccc(O)c(O)c2)oc2cc(O)cc(O)c12 [quercetin] | not detected
CC(=O)CCc1ccc(O)cc1 [rasketone] | significantly decreased
Oc1ccc(C=Cc2cc(O)cc(O)c2)cc1 [resveratrol] | not detected
COc1cc(C2Oc3cc([C@H]4Oc5cc(O)cc(O)c5C(=O)[C@@H]4O)ccc3OC2CO)ccc1O (stereo partly shown) [silybin] | significantly decreased
COc1cc(C=O)ccc1O [vanillin] | significantly decreased
COc1cc(CCC(C)=O)ccc1O [zingerone] | significantly decreased
COc1c(O)cc2oc3cc(O)c(CC=C(C)C)c(O)c3c(=O)c2c1CC=C(C)C [α-mangostin] | significantly decreased
pinoresinol | not detected

same assay, conditions: buprenorphine 10 μM, single inhibitors 24 μM, pairs 12 μM each, triple 8 μM each, p<0.05

Compound | formation of buprenorphine glucuronide
CC=Cc1ccc(O)c(OC)c1 [isoeugenol] | significantly inhibited
CCCOC(=O)c1cc(O)c(O)c(O)c1 [propyl gallate] | significantly inhibited
COc1cc(C=O)ccc1O [vanillin] | significantly inhibited
